One assay addresses human orexin receptor 1 (Homo sapiens (Human), UniProt O43613). In words: Orexin antagonist activity, intracellular calcium FLIPR assay (orexin receptor 1). The class given is cell-based. The conditions noted are these: RBL-2H3 cells stably expressing human orexin receptor 1; orexin-A at approx. 80% maximal response; 15 min preincubation; read-out: Human Orexin1R IC50. The protocol: (§1) Orexin antagonist activity was determined by measuring changes in intracellular calcium levels using a Ca^2+ sensitive fluorescent dye. The changes in fluorescent signal were monitored by Fluorescent Imaging Plate Reader (FLIPR™) technology available from Molecular Devices, LLC, U.S.A. Orexin mediated increases in intracellular Ca^2+ concentration were readily detected upon activation with orexin-A. Twenty-four hours prior to the assay, RBL-2H3 cells stably expressing either human orexin receptor 1 or human orexin receptor 2 were seeded in cell culture medium in black, clear-bottom 384-well plates (commercially available from Corning Inc., U.S.A.) and grown overnight at 37° C., 5% CO2. On the day of the assay, cell culture media was removed and cells were loaded with Calcium 5 Dye (commercially sold by Molecular Devices, LLC, U.S.A.) for 1 hour at 37° C., 5% CO2. Test compounds (at 10 point half log concentration response curves from 10 μM) were added to cells for 15 minutes prior to the addition of orexin-A to all wells, to achieve a final concentration that produces approximately an 80% maximal response. The IC50 values were determined from ten point concentration response curves. Curves were generated using the average of two wells for each data point. The results obtained are shown in the table below in which ‘NT’ denotes ‘Not Tested’.

The next assay deals with human orexin receptor 2 (Homo sapiens (Human), UniProt O43614). The experiment in a line: Orexin antagonist activity, intracellular calcium FLIPR assay (orexin receptor 2). The class given is cell-based. The note with it: RBL-2H3 cells stably expressing human orexin receptor 2; orexin-A at approx. 80% maximal response; 15 min preincubation; read-out: Human Orexin2R IC50. The protocol:
as §1

The source of these data is patent US9790220B2, “Substituted cyclopentanes, tetrahydrofuranes and pyrrolidines as orexin receptor antagonists” (Takeda Pharmaceutical Company Limited, priority 2014, dated 2017).

Where only a bound is given, the exact number is not on record here.

Sequence of human orexin receptor 2 (O43614 whole entry): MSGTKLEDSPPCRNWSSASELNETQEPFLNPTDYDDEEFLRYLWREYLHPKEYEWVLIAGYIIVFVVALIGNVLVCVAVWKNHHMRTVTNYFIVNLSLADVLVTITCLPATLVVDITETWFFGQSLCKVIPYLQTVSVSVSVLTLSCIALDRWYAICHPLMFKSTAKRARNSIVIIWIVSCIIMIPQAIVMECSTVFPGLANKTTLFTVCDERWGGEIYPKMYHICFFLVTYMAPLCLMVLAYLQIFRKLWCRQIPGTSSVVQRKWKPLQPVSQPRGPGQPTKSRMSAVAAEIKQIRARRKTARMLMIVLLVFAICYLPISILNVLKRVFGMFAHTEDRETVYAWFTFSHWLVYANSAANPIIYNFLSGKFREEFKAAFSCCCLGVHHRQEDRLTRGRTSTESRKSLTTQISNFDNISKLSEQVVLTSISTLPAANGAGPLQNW
Sequence of human orexin receptor 1 (O43613 whole entry): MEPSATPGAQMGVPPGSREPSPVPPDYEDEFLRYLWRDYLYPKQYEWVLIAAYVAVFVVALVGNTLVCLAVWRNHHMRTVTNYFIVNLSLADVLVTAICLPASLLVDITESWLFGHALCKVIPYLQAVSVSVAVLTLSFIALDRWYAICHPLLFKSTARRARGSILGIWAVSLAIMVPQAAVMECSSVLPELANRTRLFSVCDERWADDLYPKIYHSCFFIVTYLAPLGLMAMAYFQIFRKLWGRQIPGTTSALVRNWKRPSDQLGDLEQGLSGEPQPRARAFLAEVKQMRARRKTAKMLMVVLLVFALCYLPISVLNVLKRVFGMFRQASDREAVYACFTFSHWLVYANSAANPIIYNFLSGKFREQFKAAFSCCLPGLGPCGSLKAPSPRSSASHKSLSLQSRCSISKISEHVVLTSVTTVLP

As for `O=C(N[C@H]1CCC[C@@H]1Nc1nc2ccc(F)cc2s1)c1ncccc1Br` [Example 1, 3-Bromo-N-[(1S,2S)-2-[(6-fluoro-1,3-benzothiazol-2-yl)amino]cyclopentyl]-pyridine-2-carboxamide], the values for the IC50 on human orexin receptor 1 and at human orexin receptor 2 were 43 nM and above 10000 nM, respectively. With `COc1cccnc1C(=O)N[C@H]1CCC[C@@H]1Nc1nc2ccc(F)cc2s1` [Example 3, N-[(1S,2S)-2-[(6-Fluoro-1,3-benzothiazol-2-yl)amino]cyclopentyl]-3-methoxypyridine-2-carboxamide], the IC50 on human orexin receptor 1 was 170 nM; at human orexin receptor 2, above 10000 nM.

With `COc1cccnc1C(=O)N(C)[C@H]1CCC[C@@H]1Nc1nc2ccc(F)cc2s1` [Example 5, N-[(1S,2S)-2-[(6-Fluoro-1,3-benzothiazol-2-yl)amino]cyclopentyl]-3-methoxy-N-methylpyridine-2-carboxamide], the results for the IC50 at human orexin receptor 1 and at human orexin receptor 2 were 14 nM and 2800 nM, respectively.

Consider `O=C(N[C@H]1CCC[C@@H]1Nc1nc2ccc(F)cc2s1)c1ncccc1-n1nccn1` [Example 6, N-[(1S,2S)-2-[(6-Fluoro-1,3-benzothiazol-2-yl)amino]cyclopentyl]-3-(2H-1,2,3-triazol-2-yl)pyridine-2-carboxamide], for which the IC50 on human orexin receptor 1 was 8.6 nM; on human orexin receptor 2, above 10000 nM.

Turning to `COc1cccnc1C(=O)N[C@H]1CCC[C@@H]1Nc1nc2ccc(F)cc2o1` [Example 7, N-[(1S,2S)-2-[(6-Fluoro-1,3-benzoxazol-2-yl)amino]cyclopentyl]-3-methoxypyridine-2-carboxamide], the IC50 was 540 nM on human orexin receptor 1 and above 10000 nM at human orexin receptor 2. Taken in the same sequence, the figures for `CC(C)Oc1cccnc1C(=O)N[C@H]1CCC[C@@H]1Nc1nc2ccc(F)cc2s1` [Example 8, N-[(1S,2S)-2-[(6-Fluoro-1,3-benzothiazol-2-yl)amino]cyclopentyl]-3-(propan-2-yloxy)pyridine-2-carboxamide] were 34 nM and 3300 nM. For `COc1ccc(C)nc1C(=O)N[C@H]1CCC[C@@H]1Nc1nc2ccc(F)cc2s1` [Example 9, N-[(1S,2S)-2-[(6-Fluoro-1,3-benzothiazol-2-yl)amino]cyclopentyl]-3-methoxy-6-methylpyridine-2-carboxamide], the IC50 on human orexin receptor 1 is 84 nM; on human orexin receptor 2, above 10000 nM. The matching figures for `O=C(N[C@H]1CCC[C@@H]1Nc1nc2ccc(F)cc2s1)c1ncccc1-n1cccn1` [Example 10, N-[(1S,2S)-2-[(6-Fluoro-1,3-benzothiazol-2-yl)amino]cyclopentyl]-3-(1H-pyrazol-1-yl)pyridine-2-carboxamide]: 21 nM and above 10000 nM. On to `O=C(N[C@H]1CCC[C@@H]1Nc1nc2ccc(F)cc2s1)c1ncccc1F` [Example 11, 3-Fluoro-N-[(1S,2S)-2-[(6-fluoro-1,3-benzothiazol-2-yl)amino]cyclopentyl]pyridine-2-carboxamide], for which the IC50 at human orexin receptor 1 was 330 nM; at human orexin receptor 2 it was above 10000 nM.

In the case of `O=C(N[C@H]1CCC[C@@H]1Nc1nc2ccc(F)cc2s1)c1ncccc1N1CCCCC1` [Example 12, N-[(1S,2S)-2-[(6-Fluoro-1,3-benzothiazol-2-yl)amino]cyclopentyl]-3-(piperidin-1-yl)pyridine-2-carboxamide], the IC50 was 42 nM on human orexin receptor 1 and above 10000 nM at human orexin receptor 2. Take `O=C(N[C@H]1CCC[C@@H]1Nc1nc2ccc(F)cc2s1)c1ncccc1N1CCC1` [Example 13, 3-(Azetidin-1-yl)-N-[(1S,2S)-2-[(6-fluoro-1,3-benzothiazol-2-yl)amino]cyclopentyl]pyridine-2-carboxamide]: the IC50 is 69 nM at human orexin receptor 1 and above 10000 nM at human orexin receptor 2. The matching figures for `O=C(N[C@H]1CCC[C@@H]1Nc1nc2ccc(F)cc2s1)c1ncccc1N1CCCC1` [Example 14, N-[(1S,2S)-2-[(6-Fluoro-1,3-benzothiazol-2-yl)amino]cyclopentyl]-3-(pyrrolidin-1-yl)pyridine-2-carboxamide]: 170 nM and above 10000 nM.

For `COC1CN(c2cccnc2C(=O)N[C@H]2CCC[C@@H]2Nc2nc3ccc(F)cc3s2)C1` [Example 15, N-[(1S,2S)-2-[(6-Fluoro-1,3-benzothiazol-2-yl)amino]cyclopentyl]-3-(3-methoxyazetidin-1-yl)pyridine-2-carboxamide], the half-maximal inhibitory concentration (IC50) on human orexin receptor 1 is 150 nM; on human orexin receptor 2, above 10000 nM. `COc1cccnc1C(=O)N[C@H]1CCC[C@@H]1Nc1cnc2ccccc2n1` [Example 16, 3-Methoxy-N-[(1S,2S)-2-[(quinoxalin-2-yl)amino]cyclopentyl]pyridine-2-carboxamide]: at human orexin receptor 1, the IC50 worked out at 630 nM.

As for `COc1ccc(C(F)(F)F)nc1C(=O)N[C@H]1CCC[C@@H]1Nc1nc2ccc(F)cc2s1` [Example 17, N-[(1S,2S)-2-[(6-Fluoro-1,3-benzothiazol-2-yl)amino]cyclopentyl]-3-methoxy-6-(trifluoromethyl)pyridine-2-carboxamide], the IC50 on human orexin receptor 1 came to 210 nM; on human orexin receptor 2 it was 9600 nM. `CCOc1cccnc1C(=O)N[C@H]1CCC[C@@H]1Nc1nc2ccc(F)cc2s1` [Example 18, 3-Ethoxy-N-[(1S,2S)-2[(6-fluoro-1,3-benzothiazol-2-yl)amino]cyclopentyl]pyridine-2-carboxamide]: the IC50 amounted to 41 nM on human orexin receptor 1 and 8800 nM at human orexin receptor 2. The matching figures for `O=C(N[C@H]1CCC[C@@H]1Nc1nc2ccc(F)cc2s1)c1ncccc1OC(F)(F)F` [Example 19, N-[(1S,2S)-2-[(6-Fluoro-1,3-benzothiazol-2-yl)amino]cyclopentyl]-3-(trifluoromethoxy)pyridine-2-carboxamide]: 33 nM and 3600 nM. For the compound `O=C(N[C@H]1CCC[C@@H]1Nc1nc2ccc(F)cc2s1)c1ncccc1OC(F)F` [Example 20, 3-(Difluoromethoxy)-N-[(1S,2S)-2-[(6-fluoro-1,3-benzothiazol-2-yl)amino]cyclopentyl]pyridine-2-carboxamide], the IC50 on human orexin receptor 1 was 100 nM; on human orexin receptor 2, above 10000 nM. The matching figures for `O=C(N[C@H]1CCC[C@@H]1Nc1nc2ccc(Cl)cc2s1)c1ncccc1-n1nccn1` [Example 21, N-[(1S,2S)-2-[(6-Chloro-1,3-benzothiazol-2-yl)amino]cyclopentyl]-3-(2H-1,2,3-triazol-2-yl)pyridine-2-carboxamide]: 24 nM and above 10000 nM. Regarding `O=C(N[C@H]1CCC[C@@H]1Nc1nc2ccc(Cl)cc2s1)c1ncccc1OC(F)F` [Example 22, N-[(1S,2S)-2-[(6-Chloro-1,3-benzothiazol-2-yl)amino]cyclopentyl]-3-(difluoromethoxy)pyridine-2-carboxamide], the results for the IC50 at human orexin receptor 1 and on human orexin receptor 2 were 300 nM and above 10000 nM, respectively. For `O=C(N[C@H]1CCC[C@@H]1Nc1nc2ccc(F)cc2o1)c1ncccc1OC(F)F` [Example 23, 3-(Difluoromethoxy)-N-[(1S,2S)-2-[(6-fluoro-1,3-benzoxazol-2-yl)amino]cyclopentyl]pyridine-2-carboxamide], the results for the IC50 at human orexin receptor 1 and on human orexin receptor 2 were 290 nM and above 10000 nM, respectively.

With `O=C(N[C@H]1CCC[C@@H]1Nc1nc2ccc(F)cc2s1)c1ncccc1-n1ccnn1` [Example 24, N-[(1S,2S)-2-[(6-Fluoro-1,3-benzothiazol-2-yl)amino]cyclopentyl]-3-(1H-1,2,3-triazol-1-yl)pyridine-2-carboxamide], the IC50 on human orexin receptor 1 is 86 nM; on human orexin receptor 2, above 10000 nM.

Turning to `O=C(N[C@H]1CCC[C@@H]1Nc1nc2ccc(Cl)cc2o1)c1ncccc1OC(F)F` [Example 25, N-[(1S,2S)-2-[(6-Chloro-1,3-benzoxazol-2-yl)amino]cyclopentyl]-3-(difluoromethoxy)pyridine-2-carboxamide], the figures for the IC50 at human orexin receptor 1 and on human orexin receptor 2 were 660 nM and above 10000 nM, respectively.

As for `CCOc1ccc(C)nc1C(=O)NC1CCCC1Cc1ccc2ccccc2n1` (stereo not drawn) [Example 26, 3-Ethoxy-6-methyl-N-[2-(quinolin-2-ylmethyl)cyclopentyl]pyridine-2-carboxamide], at human orexin receptor 1, the IC50 stood at 910 nM. For the compound `CCOc1ccc(C)nc1C(=O)NC1CCCC1Cc1ccc2ccccc2n1` (stereo not drawn) [Example 27, 3-Ethoxy-6-methyl-N-[2-(quinolin-2-ylmethyl)cyclopentyl]pyridine-2-carboxamide], the IC50 at human orexin receptor 1 stood at 71 nM; at human orexin receptor 2, 6000 nM.
